# Literature values in PubChem BioAssay AID1259409 (Chemical Carcinogenesis Research Information System (CCRIS), 2018).
# Test system: rodent chemically induced tumor inhibition, incidence and multiplicity
# Experiment: CCRIS tumor inhibitor studies
structure (smiles),measurement,setting,value
CC(C)c1cc(C(=O)O)c(O)c(C(C)C)c1,"tumour outcome (control, treated, inhibition, significance)","Carcinogen: BENZO[A]PYRENE, 50-32-8, Dose [Inhibitor]: 2000 NMOL IN 0.2 ML ACETONE APPLIED ONCE TO DORSAL SKIN 15 MIN PRIOR TO CARCINOGEN DOSE (STUDY DURATION: 20 WK), Route [Inhibitor]: DERMAL, Species: MOUSE, Strain/Sex: SENCAR/FEMALE, Target Tissue: Type of Lesion: SKIN: PAPILLOMA, Dose [Carcinogen]: 200 NMOL IN 0.2 ML ACETONE ONCE","97%, 96%, 0.3%, not significant"
Cc1cc(O)cc(=O)o1,"tumour outcome (control, treated, inhibition, significance)","Carcinogen: BENZO[A]PYRENE, 50-32-8, Dose [Inhibitor]: 0.034 MMOL/G IN DIET FOR 5 WK BEGINNING 1 WK PRIOR TO FIRST CARCINOGEN DOSE AND CONTINUING FOR 3 D POST LAST CARCINOGEN, Route [Inhibitor]: ORAL, Species: MOUSE, Strain/Sex: ICR/FEMALE, Target Tissue: Type of Lesion: FORESTOMACH: TUMOR, Dose [Carcinogen]: 1 MG IN 0.2 ML CORN OIL 2/WK FOR 4 WK STARTING, Promoter: NONE USED","94%, 85%, 10%, not significant"
CCC(C)C(NC(=O)C(C)NC(=O)C(Cc1cnc[nH]1)NC(=O)C1CCCN1C(=O)CNC(=O)C(CC(C)C)NC(=O)C(CC(C)C)NC(=O)C(Cc1ccc(O)cc1)NC(=O)CNC(=O)C(C)NC(=O)C(CO)NC(=O)C(CC(N)=O)NC(=O)C(CC(C)C)NC(=O)C(NC(=O)C(Cc1c[nH]c2ccccc12)NC(=O)CN)C(C)O)C(=O)NC(CC(=O)O)C(=O)NC(CC(N)=O)C(=O)NC(Cc1c[nH]cn1)C(=O)NC(CCCNC(=N)N)C(=O)NC(CO)C(=O)NC(Cc1ccccc1)C(=O)NC(Cc1cnc[nH]1)C(=O)NC(CC(=O)O)C(=O)NC(CCCCN)C(=O)NC(Cc1ccc(O)cc1)C(=O)NCC(=O)NC(CC(C)C)C(=O)NC(C)C(N)=O (stereo not given),"tumour outcome (control, treated, inhibition, significance)","Carcinogen: AZOXYMETHANE, 25843-45-2, Dose [Inhibitor]: 0, 4 UG/KG BW IN OLIVE OIL 1/2 D FOR DURATION OF STUDY (STUDY DURATION: 45 WK), Route [Inhibitor]: SUBCUTANEOUS, Species: RAT, Strain/Sex: WISTAR/MALE, Target Tissue: Type of Lesion: COLON: ADENOMA OR ADENOCARCINOMA, Dose [Carcinogen]: 7.4 MG/KG BW IN 0.9% SALINE 1/WK FOR 10 WK, Promoter: NONE USED","15/19 (79%), 7/19 (37%), 53%, p<0.05"
same,"tumour outcome (control, treated, inhibition, significance)","Carcinogen: N-METHYL-N'-NITRO-N-NITROSOGUANIDINE, 70-25-7, Dose [Inhibitor]: 0, 2 UG/KG BW IN OLIVE OIL 1/2 WK FOR 26 WK BEGINNING POST CARCINOGEN TREATMENT (STUDY DURATION: 52 WK), Route [Inhibitor]: SUBCUTANEOUS, Species: RAT, Strain/Sex: WISTAR/MALE, Target Tissue: Type of Lesion: STOMACH: ADENOCARCINOMA, Dose [Carcinogen]: 50 UG/ML IN DRINKING WATER FOR 25 WK, Promoter: NONE USED","10/20 (50%), 10/20 (50%), 0%, not significant"
same,"tumour outcome (control, treated, inhibition, significance)","Carcinogen: N-METHYL-N'-NITRO-N-NITROSOGUANIDINE, 70-25-7, Dose [Inhibitor]: 0, 4 UG/KG BW IN OLIVE OIL 1/2 WK FOR 26 WK BEGINNING POST CARCINOGEN TREATMENT (STUDY DURATION: 52 WK), Route [Inhibitor]: SUBCUTANEOUS, Species: RAT, Strain/Sex: WISTAR/MALE, Target Tissue: Type of Lesion: STOMACH: ADENOCARCINOMA, Dose [Carcinogen]: 50 UG/ML IN DRINKING WATER FOR 25 WK, Promoter: NONE USED","10/20 (50%), 3/20 (15%), 70%, p<0.01"
